These results are taken from ChEMBL document CHEMBL2440097, “Triphenylphosphonium salts of 1,2,4-benzothiadiazine 1,1-dioxides related to diazoxide targeting mitochondrial ATP-sensitive potassium channels” (Bioorg Med Chem Lett, 2013).

The test system of data set [1] is H9c2. Put plainly: Effect on routine respiration in […] H9C2 cells at 10 uM by high resolution oxygraphic analysis. The data set is classed as functional, cell-based.
The test system of data set [2] is H9c2. Kind of data set: Effect on ATP production in […] H9C2 cells up to 10 uM after 24 hrs by CellTiter-Glo luminescent test. It counts as functional, cell-based.
For data set [3], the system named is H9c2. Put plainly: Effect on metabolic activity in […] H9C2 cells up to 10 uM incubated for 1 hr followed by paraquat addition measured after 24 hrs by CellTiter 96 Aqueous non-radioactive cell proliferation assay. It counts as functional, cell-based.
Data set [4] relates to H9c2. Kind of data set: Effect on maximal respiratory capacity in […] H9C2 cells at 10 uM by high resolution oxygraphic analysis. It counts as functional, cell-based.
Data set [5] addresses Kir6.2/SUR1 (Rattus norvegicus) (UniProt P70673+Q09429). Put plainly: Activation of Kir6.2/SUR1 in rat pancreatic islets assessed as residual glucose-induced insulin release at 10 uM relative to control.
Data set [6] is described as follows: Drug uptake in mitochondria of […] H9C2 cells at 1 x 10^-4 M after 2 hrs by LC-MS analysis. The data set is classed as ADME. Particulars: h9c2, 2 h, 100 µM.
Data set [7] in a line: Drug uptake in cytosol of […] H9C2 cells at 1 x 10^-4 M after 2 hrs by LC-MS analysis. The data set is classed as ADME, cell-based. The conditions noted are these: 100 µM.
In data set [8] the test system is H9c2. Kind of data set: Effect on oligomycin-inhibited leak respiration in […] H9C2 cells at 10 uM by high resolution oxygraphic analysis. It counts as functional, cell-based.

Calls of active or inactive are those of the source. No cut-off for these calls is given here.

On to `C[C@H](COC(=O)CC[P+](c1ccccc1)(c1ccccc1)c1ccccc1)NC1=NS(=O)(=O)c2cc(Cl)ccc2N1`, for which the outcome in the data set on H9c2 [1], in the data set on H9c2 [2], in the data set with H9c2 [3] and in the data set on H9c2 [4] was inactive. Also, the Activity in data set [5] worked out at 56%.

For the molecule `C[C@H](COC(=O)CCC[P+](c1ccccc1)(c1ccccc1)c1ccccc1)NC1=NS(=O)(=O)c2cc(Cl)ccc2N1`, the outcome in the data set with H9c2 [1], in the data set with H9c2 [2], in the data set with H9c2 [3] and in the data set with H9c2 [4] was inactive. The Activity in data set [5] stood at 63.7%.

Take `CC1=Nc2ccc(Cl)cc2S(=O)(=O)N1`: in data set [5], the Activity amounted to 73.9%.

As to `C[C@H](COC(=O)C[P+](c1ccccc1)(c1ccccc1)c1ccccc1)NC1=NS(=O)(=O)c2cc(Cl)ccc2N1.[Cl-]`, the outcome in the data set on H9c2 [1], in the data set with H9c2 [2], in the data set with H9c2 [3] and in the data set with H9c2 [4] was inactive. Besides, the Drug uptake result in data set [6] and in data set [7] was “Active” each time. The result in the data set on H9c2 [8] was Active. Besides, in data set [5], the Activity amounted to 27%.
